pIC50: −log10 of the molar value.
Experiments:
[1] = target: T1, CDK2/CycE (Homo sapiens, UniProt P24941); assay: CDK2/CycE kinase assay (Method 2a, TR-FRET); format: biochemical; settings: 10 μM ATP
T1 construct: GST; purchased ProQinase GmbH (Freiburg, Germany); host or cells: insect cells (Sf9)
Source text: 2a. CDK2/CycE kinase assay:
CDK2/CycE-Inhibitory Activity of Compounds of the Present Invention was Quantified Employing the CDK2/CycE TR-FRET Assay as Described in the Following Paragraphs:
Recombinant fusion proteins of GST and human CDK2 and of GST and human CycE, expressed in insect cells (Sf9) and purified by Glutathion-Sepharose affinity chromatography, were purchased from ProQinase GmbH (Freiburg, Germany). As substrate for the kinase reaction biotinylated peptide biotin-Ttds-YISPLKSPYKISEG (C-terminus in amid form) was used which can be purchased e.g. form the company JERINI Peptide Technologies (Berlin, Germany).
For the assay 50 nl of a 100 fold concentrated solution of the test compound in DMSO was pipetted into a black low volume 384 well microtiter plate (Greiner Bio-One, Frickenhausen, Germany), 2 yl of a solution of CDK2/CycE in aqueous assay buffer [50 mM Tris/HCl pH 8.0, 10 mM MgCl2, 1.0 mM dithiothreitol, 0.1 mM sodium ortho-vanadate, 0.01% (v/v) Nonidet-P40 (Sigma)] were added and the mixture was incubated for 15 min at 22° C. to allow pre-binding of the test compounds to the enzyme before the start of the kinase reaction. […] The concentration of CDK2/CycE was adjusted depending of the activity of the enzyme lot and was chosen appropriate to have the assay in the linear range, typical concentrations were in the range of 130 ng/mL. The reaction was stopped by the addition of 5 yl of a solution of TR-FRET detection reagents (0.2 μM streptavidine-XL665 [Cisbio Bioassays, Codolet, France] and 1 nM anti-RB(pSer807/pSer811)-antibody from BD Pharmingen [#558389] and 1.2 nM LANCE EU-W1024 labeled anti-mouse IgG antibody [Perkin-Elmer, product no. AD0077]) in an aqueous EDTA-solution (100 mM EDTA, 0.2% (w/v) bovine serum albumin in 100 mM HEPES/NaOH pH 7.0).
The resulting mixture was incubated 1 h at 22° C. to allow the formation of complex between the phosphorylated biotinylated peptide and the detection reagents. Subsequently the amount of phosphorylated substrate was evaluated by measurement of the resonance energy transfer from the Eu-chelate to the streptavidine-XL. Therefore, the fluorescence emissions at 620 nm and 665 nm after excitation at 350 nm was measured in a TR-FRET reader, e.g. a Rubystar (BMG Labtechnologies, Offenburg, Germany) or a Viewlux (Perkin-Elmer). The ratio of the emissions at 665 nm and at […] was taken as the measure for the amount of phosphorylated substrate. The data were normalised (enzyme reaction without inhibitor=0% inhibition, all other assay components but no enzyme=100% inhibition).

[2] = Caco-2 permeation assay (Method 4); format: in vitro ADME; settings: human, 2 μM test compound; for efflux ratio at 2 h, 2 μM: Caco-2, pH 7.2, read-out: Efflux ratio (Papp B-A/Papp A-B); for Papp A→B at 2 h, 2 μM / Papp B→A at 2 h, 2 μM: Caco-2, 2 h incubation, pH 7.2; for Papp A→B at 2 h, 2 μM: read-out: Papp A-B (Mari); for Papp B→A at 2 h, 2 μM: read-out: Papp B-A (Mari)
Description: 4. Caco-2 Permeation Assay:
Caco-2 cells (purchased from DSMZ Braunschweig, Germany) were seeded at a density of 4.5×10^4 cells per well on 24 well insert plates, 0.4 μm pore size, and grown for 15 days in DMEM medium supplemented with 10% fetal bovine serum, 1% GlutaMAX (100×, GIBCO), 100 U/mL penicillin, 100 μg/mL streptomycin (GIBCO) and 1% non essential amino acids (100×). Cells were maintained at 37° C. in a humified 5% CO2 atmosphere. Medium was changed every 2-3 day. Before running the permeation assay, the culture medium was replaced by a FCS-free hepes-carbonate transport buffer (pH 7.2). For assessment of monolayer integrity the transepithelial electrical resistance (TEER) was measured. Test compounds were predissolved in DMSO and added either to the apical or basolateral compartment in final concentration of 2 μM in transport buffer. Before and after 2 h incubation at 37° C. samples were taken from both compartments. Analysis of compound content was done after precipitation with methanol by LC/MS/MS analysis. Permeability (Papp) was calculated in the apical to basolateral (A→B) and basolateral to apical (B→A) directions. The apparent permeability was calculated using following equation: Papp=(Vr/Po)(1/S)(P2/t)
Where Vr is the volume of medium in the receiver chamber, Po is the measured peak area or height of the test drug in the donor chamber at t=o, S the surface area of the monolayer, P2 is the measured peak area of the test drug in the acceptor chamber after 2 h of incubation, and t is the incubation time. The efflux ratio basolateral (B) to apical (A) was calculated by dividing the Papp B-A by the Papp A-B. In addition the compound recovery was calculated.

Row | Structure (SMILES) | pIC50 [1] | also measured
1 | CS(=O)(Cc1cccc(Nc2ncc(F)c(-c3ccc(F)c4ccoc34)n2)c1)=NC#N (racemic) [Example 1, (rac)-[(3-{[5-Fluoro-4-(4-fluoro-1-benzofuran-7-yl)pyrimidin-2-yl]amino}benzyl)(methyl)oxido-λ^6-sulfanylidene]cyanamide] | 7.12 | –
2 | CS(=N)(=O)Cc1cccc(Nc2ncc(F)c(-c3ccc(F)c4ccoc34)n2)c1 (racemic) [Example 4, (rac)-5-Fluoro-4-(4-fluoro-1-benzofuran-7-yl)-N-{3-[(S-methylsulfonimidoyl)-methyl]phenyl}-pyrimidin-2-amine] | 6.96 | efflux ratio at 2 h, 2 μM [2]: 0.57; Papp A→B at 2 h, 2 μM [2]: 18.3 ×10⁻⁶ cm/s; Papp B→A at 2 h, 2 μM [2]: 10.4 ×10⁻⁶ cm/s
3 | CS(=O)(Cc1cc(F)cc(Nc2ncc(F)c(-c3ccc(F)c4ccoc34)n2)c1)=NC#N (racemic) [Example 7, (rac)-[(3-Fluoro-5-{[5-fluoro-4-(4-fluoro-1-benzofuran-7-yl)pyrimidin-2-yl]amino}benzyl)(methyl)-oxido-λ^6-sulfanylidene]cyanamide] | 7.25 | –
4 | CS(=N)(=O)Cc1cc(F)cc(Nc2ncc(F)c(-c3ccc(F)c4ccoc34)n2)c1 (racemic) [Example 10, (rac)-5-Fluoro-4-(4-fluoro-1-benzofuran-7-yl)-N-{3-fluoro-5-[(S-methylsulfonimidoyl)-methyl]-phenyl}-pyrimidin-2-amine] | 7.30 | –
5 | CS(=O)(Cc1cccc(Nc2ncc(F)c(-c3ccc(F)c4ccoc34)n2)c1)=NC#N (single isomer, unassigned) [Example 2, [(3-{[5-Fluoro-4-(4-fluoro-1-benzofuran-7-yl)pyrimidin-2-yl]amino}benzyl)(methyl)oxido-λ^6-sulfanylidene]cyanamide] | 7.72 | –
6 | CS(=O)(Cc1cccc(Nc2ncc(F)c(-c3ccc(F)c4ccoc34)n2)c1)=NC#N (single isomer, unassigned) [Example 3, [(3-{[5-Fluoro-4-(4-fluoro-1-benzofuran-7-yl)pyrimidin-2-yl]amino}benzyl)(methyl)oxido-λ^6-sulfanylidene]cyanamide] | 7.35 | –
7 | CS(=N)(=O)Cc1cccc(Nc2ncc(F)c(-c3ccc(F)c4ccoc34)n2)c1 (single isomer, unassigned) [Example 5, 5-Fluoro-4-(4-fluoro-1-benzofuran-7-yl)-N-{3-[(S-methylsulfonimidoyl)-methyl]-phenyl}-pyrimidin-2-amine] | 7.05 | –
8 | CS(=N)(=O)Cc1cccc(Nc2ncc(F)c(-c3ccc(F)c4ccoc34)n2)c1 (single isomer, unassigned) [Example 6, 5-Fluoro-4-(4-fluoro-1-benzofuran-7-yl)-N-{3-[(S-methylsulfonimidoyl)-methyl]-phenyl}-pyrimidin-2-amine] | 7.24 | efflux ratio at 2 h, 2 μM [2]: 0.51; Papp A→B at 2 h, 2 μM [2]: 22.1 ×10⁻⁶ cm/s; Papp B→A at 2 h, 2 μM [2]: 11.3 ×10⁻⁶ cm/s
9 | CS(=O)(Cc1cc(F)cc(Nc2ncc(F)c(-c3ccc(F)c4ccoc34)n2)c1)=NC#N (single isomer, unassigned) [Example 8, [(3-Fluoro-5-{[5-fluoro-4-(4-fluoro-1-benzofuran-7-yl)pyrimidin-2-yl]amino}benzyl)(methyl)-oxido-λ^6-sulfanylidene]cyanamide] | 7.21 | –
10 | CS(=O)(Cc1cc(F)cc(Nc2ncc(F)c(-c3ccc(F)c4ccoc34)n2)c1)=NC#N (single isomer, unassigned) [Example 9, [(3-Fluoro-5-{[5-fluoro-4-(4-fluoro-1-benzofuran-7-yl)pyrimidin-2-yl]amino}benzyl)(methyl)-oxido-λ^6-sulfanylidene]cyanamide] | 7.06 | –
11 | CS(=N)(=O)Cc1cc(F)cc(Nc2ncc(F)c(-c3ccc(F)c4ccoc34)n2)c1 (single isomer, unassigned) [Example 11, 5-Fluoro-4-(4-fluoro-1-benzofuran-7-yl)-N-{3-fluoro-5-[(S-methylsulfonimidoyl)-methyl]-phenyl}-pyrimidin-2-amine] | 7.14 | –

Now from value to compound, other results behind:

Row | pIC50 [1] | Structure (SMILES) | also measured
12 | 7.39 | Cc1cc(CS(C)(=O)=NC#N)cc(Nc2ncc(F)c(-c3ccc(F)c4ccoc34)n2)c1 (racemic) [Example 13, (rac)-[(3-{[5-Fluoro-4-(4-fluoro-1-benzofuran-7-yl)pyrimidin-2-yl]amino}-5-methylbenzyl)-(methyl)oxido-λ^6-sulfanylidene]cyanamide] | –
13 | 7.10 | Cc1cc(CS(C)(=N)=O)cc(Nc2ncc(F)c(-c3ccc(F)c4ccoc34)n2)c1 (racemic) [Example 16, (rac)-5-Fluoro-4-(4-fluoro-1-benzofuran-7-yl)-N-{3-methyl-5-[(S-methylsulfonimidoyl)-methyl]phenyl}pyrimidin-2-amine] | –
14 | 6.59 | CS(=O)(Cc1cc(Nc2ncc(F)c(-c3ccc(F)c4ccoc34)n2)cc(S(F)(F)(F)(F)F)c1)=NC#N (racemic) [Example 17, (rac)-{[3-{[5-fluoro-4-(4-fluoro-1-benzofuran-7-yl)pyrimidin-2-yl]amino}-5-(pentafluoro-λ^6-sulfanyl)benzyl](methyl)oxido-λ^6-sulfanylidene}cyanamide] | –
15 | 7.14 | CS(=N)(=O)Cc1cc(Nc2ncc(F)c(-c3ccc(F)c4ccoc34)n2)cc(S(F)(F)(F)(F)F)c1 (racemic) [Example 18, (rac)-5-Fluoro-4-(4-fluoro-1-benzofuran-7-yl)-N-{3-[(S-methylsulfonimidoyl)methyl]-5-(pentafluoro-λ^6-sulfanyl)phenyl}pyrimidin-2-amine] | –
16 | 7.32 | CS(=N)(=O)Cc1cc(F)cc(Nc2ncc(F)c(-c3ccc(F)c4ccoc34)n2)c1 (single isomer, unassigned) [Example 12, 5-Fluoro-4-(4-fluoro-1-benzofuran-7-yl)-N-{3-fluoro-5-[(S-methylsulfonimidoyl)-methyl]-phenyl}-pyrimidin-2-amine] | –
17 | 7.19 | Cc1cc(CS(C)(=O)=NC#N)cc(Nc2ncc(F)c(-c3ccc(F)c4ccoc34)n2)c1 (single isomer, unassigned) [Example 14, [(3-{[5-Fluoro-4-(4-fluoro-1-benzofuran-7-yl)pyrimidin-2-yl]amino}-5-methylbenzyl)-(methyl)oxido-λ^6-sulfanylidene]cyanamide] | –
18 | 7.02 | Cc1cc(CS(C)(=O)=NC#N)cc(Nc2ncc(F)c(-c3ccc(F)c4ccoc34)n2)c1 (single isomer, unassigned) [Example 15, [(3-{[5-Fluoro-4-(4-fluoro-1-benzofuran-7-yl)pyrimidin-2-yl]amino}-5-methylbenzyl)-(methyl)oxido-λ^6-sulfanylidene]cyanamide] | –

Source: patent US9884849B2, “Fluorinated benzofuranyl-pyrimidine derivatives containing a sulfoximine group” (Bayer Pharma Aktiengesellschaft, priority 2014, dated 2018)
